From US20140275094A1, “METHOD FOR TREATING PULMONARY ARTERIAL HYPERTENSION IN A PATIENT NOT HAVING IDIOPATHIC PULMONARY FIBROSIS” (GILEAD SCIENCES, INC., priority 2012, published 2014) come the findings set out here.

The target in series [1] is T1, human bile salt export pump (BSEP) (Homo sapiens, UniProt O95342).
T1 construct: expressed in transfected cells; host or cells: Sf9 cell membrane vesicles
Nature of the series: Inhibition of hepatic transporter BSEP, Sf9 cell membrane vesicles. Type of series: biochemical. The procedure: (§1) Inhibition constants (IC50) were measured for human bile salt export pump (BSEP), sodium taurocholate cotransporting polypeptide (NTCP), multidrug resistance protein 2 (MRP2), P-glycoprotein (Pgp), breast cancer resistance protein (BCRP), organic anion-transporting polypeptide 1B1 (OATP1B1), and OATP1B3 in transfected cell-lines. Known inhibitors were used as positive controls.

For series [2], the target named is T2, OATP1B3 (Homo sapiens, UniProt Q9NPD5).
T2 construct: expressed in transfected cells; host or cells: CHO
T2 sequence (Q9NPD5 1-702): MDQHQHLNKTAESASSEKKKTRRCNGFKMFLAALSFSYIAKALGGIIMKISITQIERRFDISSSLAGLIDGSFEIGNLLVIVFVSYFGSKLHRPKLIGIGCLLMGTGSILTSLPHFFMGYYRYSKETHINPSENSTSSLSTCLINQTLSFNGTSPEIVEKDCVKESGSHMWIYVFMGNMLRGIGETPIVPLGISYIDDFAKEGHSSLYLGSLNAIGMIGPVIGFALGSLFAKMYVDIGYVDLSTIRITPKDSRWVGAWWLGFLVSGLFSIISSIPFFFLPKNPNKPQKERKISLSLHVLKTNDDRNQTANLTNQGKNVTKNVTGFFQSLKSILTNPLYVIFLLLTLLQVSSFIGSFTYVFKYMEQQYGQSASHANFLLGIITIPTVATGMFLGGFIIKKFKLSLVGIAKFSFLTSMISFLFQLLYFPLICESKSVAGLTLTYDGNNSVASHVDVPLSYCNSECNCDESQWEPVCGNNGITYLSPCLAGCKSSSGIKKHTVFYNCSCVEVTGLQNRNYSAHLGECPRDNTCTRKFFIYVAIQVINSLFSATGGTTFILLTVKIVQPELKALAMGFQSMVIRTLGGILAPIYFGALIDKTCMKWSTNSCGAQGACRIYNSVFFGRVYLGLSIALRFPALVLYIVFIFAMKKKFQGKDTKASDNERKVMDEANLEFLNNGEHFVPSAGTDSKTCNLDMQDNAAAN
The series can be described thus: Inhibition of OATP1B3, transfected CHO cells. To be noted: OAT1B3. Type of series: cell-based. The procedure:
as §1

Series [3] has as its target T3, sodium taurocholate cotransporting polypeptide (NTCP) (Homo sapiens, UniProt Q14973).
T3 construct: expressed in transfected cells; host or cells: Chinese Hamster Ovary (CHO)
T3 sequence (Q14973 1-349): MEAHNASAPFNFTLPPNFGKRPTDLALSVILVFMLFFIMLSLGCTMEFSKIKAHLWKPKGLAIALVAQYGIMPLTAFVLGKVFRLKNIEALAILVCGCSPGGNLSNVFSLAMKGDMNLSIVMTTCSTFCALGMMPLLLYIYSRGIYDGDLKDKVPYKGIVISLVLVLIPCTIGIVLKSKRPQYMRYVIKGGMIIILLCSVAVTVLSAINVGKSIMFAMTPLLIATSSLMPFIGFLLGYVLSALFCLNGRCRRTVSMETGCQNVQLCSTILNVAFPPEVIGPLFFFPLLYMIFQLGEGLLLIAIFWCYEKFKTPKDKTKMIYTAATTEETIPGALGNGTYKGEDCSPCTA
The series can be described thus: Inhibition of hepatic transporter NTCP, transfected CHO cells. The class given is cell-based. The procedure: as §1

For series [4], the target named is T4, organic anion-transporting polypeptide 1B1 (OATP1B1) (Homo sapiens, UniProt Q9Y6L6).
T4 construct: expressed in transfected cells; host or cells: CHO
T4 sequence (Q9Y6L6 1-691): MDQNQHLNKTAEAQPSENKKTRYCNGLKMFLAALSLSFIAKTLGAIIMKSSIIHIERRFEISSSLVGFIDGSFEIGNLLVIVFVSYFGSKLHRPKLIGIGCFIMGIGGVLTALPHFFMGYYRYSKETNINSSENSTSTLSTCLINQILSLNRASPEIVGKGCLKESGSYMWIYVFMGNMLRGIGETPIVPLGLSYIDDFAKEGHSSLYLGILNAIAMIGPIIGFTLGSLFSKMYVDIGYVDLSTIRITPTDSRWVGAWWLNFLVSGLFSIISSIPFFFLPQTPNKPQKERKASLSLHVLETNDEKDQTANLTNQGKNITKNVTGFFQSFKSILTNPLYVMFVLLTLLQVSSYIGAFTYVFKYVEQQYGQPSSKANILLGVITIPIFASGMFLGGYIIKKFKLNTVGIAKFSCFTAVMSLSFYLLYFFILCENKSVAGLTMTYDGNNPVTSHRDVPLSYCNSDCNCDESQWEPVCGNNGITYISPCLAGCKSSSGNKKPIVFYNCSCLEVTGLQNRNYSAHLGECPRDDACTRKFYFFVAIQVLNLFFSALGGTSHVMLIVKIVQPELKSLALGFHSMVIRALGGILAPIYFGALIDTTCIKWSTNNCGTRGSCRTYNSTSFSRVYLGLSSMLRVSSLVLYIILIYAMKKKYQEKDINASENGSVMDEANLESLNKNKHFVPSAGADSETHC
The series can be described thus: Inhibition of OATP1B1, transfected CHO cells. Type of series: cell-based. The procedure:
as §1

T1 sequence (O95342 whole entry): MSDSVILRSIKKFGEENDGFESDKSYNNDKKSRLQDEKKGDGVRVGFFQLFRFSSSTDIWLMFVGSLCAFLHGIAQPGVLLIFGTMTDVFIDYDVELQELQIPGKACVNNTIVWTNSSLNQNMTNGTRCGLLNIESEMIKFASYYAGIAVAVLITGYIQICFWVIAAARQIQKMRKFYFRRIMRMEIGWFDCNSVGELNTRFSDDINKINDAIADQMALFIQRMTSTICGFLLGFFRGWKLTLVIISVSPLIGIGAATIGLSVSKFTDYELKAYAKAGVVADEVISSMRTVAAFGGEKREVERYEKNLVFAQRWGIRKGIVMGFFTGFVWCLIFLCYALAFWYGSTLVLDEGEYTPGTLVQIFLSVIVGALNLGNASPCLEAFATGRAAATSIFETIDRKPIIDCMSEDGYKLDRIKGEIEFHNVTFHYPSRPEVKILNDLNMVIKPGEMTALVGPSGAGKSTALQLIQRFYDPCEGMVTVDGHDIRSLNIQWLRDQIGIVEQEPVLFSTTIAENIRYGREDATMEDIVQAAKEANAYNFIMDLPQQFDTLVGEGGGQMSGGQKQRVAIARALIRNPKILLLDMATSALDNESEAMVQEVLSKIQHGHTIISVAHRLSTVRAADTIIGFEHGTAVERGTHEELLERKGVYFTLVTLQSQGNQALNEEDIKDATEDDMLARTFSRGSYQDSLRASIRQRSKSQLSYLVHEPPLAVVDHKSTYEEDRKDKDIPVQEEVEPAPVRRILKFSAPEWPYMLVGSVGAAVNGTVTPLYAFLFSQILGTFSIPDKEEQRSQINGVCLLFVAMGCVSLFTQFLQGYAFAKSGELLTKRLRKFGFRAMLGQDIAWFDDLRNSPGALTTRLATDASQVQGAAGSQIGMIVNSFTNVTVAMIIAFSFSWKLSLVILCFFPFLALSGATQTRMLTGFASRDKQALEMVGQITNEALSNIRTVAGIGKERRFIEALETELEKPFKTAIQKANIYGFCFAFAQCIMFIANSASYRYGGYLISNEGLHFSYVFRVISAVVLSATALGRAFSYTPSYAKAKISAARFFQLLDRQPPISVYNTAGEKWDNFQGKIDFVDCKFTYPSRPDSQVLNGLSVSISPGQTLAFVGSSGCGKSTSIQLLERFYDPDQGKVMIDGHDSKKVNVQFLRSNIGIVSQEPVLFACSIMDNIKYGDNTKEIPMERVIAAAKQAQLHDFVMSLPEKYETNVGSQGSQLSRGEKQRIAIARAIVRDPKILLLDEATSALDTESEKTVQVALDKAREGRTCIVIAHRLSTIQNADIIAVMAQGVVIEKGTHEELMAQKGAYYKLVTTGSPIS

As for `COc1ccccc1Oc1c(NS(=O)(=O)c2ccc(C(C)(C)C)cc2)nc(-c2ncccn2)nc1OCCO` [Bosentan], the “effect on BSEP” value in series [1] is on record as “inhibition was observed”. Also, the half-maximal inhibitory concentration (IC50) in series [1] (BSEP) was 54.4 µM; in series [2] it was 5.2 ± 2.1 µM; in series [3] (NTCP), 36.5 µM; in series [4] it was 5 ± 2 µM. Also, in series [3], the “effect on NTCP” value is on record as “inhibition was observed”.
Turning to `COC(c1ccccc1)(c1ccccc1)[C@H](Oc1nc(C)cc(C)n1)C(=O)O` [Ambrisentan, (25)-2-[(4,6-dimethylpyrimidin-2-yl)oxy]-3-methoxy-3,3-diphenylpropanoic acid], in series [1], the “effect on BSEP” value was “no measurable effect”. For the same molecule, the figures for the half-maximal inhibitory concentration (IC50) in series [2] and in series [4] were 44.6 ± 23.8 µM and 47 ± 21.3 µM, respectively. In addition, in series [3], the “effect on NTCP” value is “no measurable effect”.

The term IC50 denotes the concentration that inhibits the measured activity by half.
